# Legend:
# Type in all cases: functional
# Escherichia coli [1] = assay: Antibacterial activity against Escherichia coli (OC 2605)
# Staphylococcus aureus [2] = assay: Antibacterial activity against methicillin susceptible Staphylococcus aureus (OC 4172) in presence of 50% mouse serum
# Enterococcus faecalis = assay: Antibacterial activity against Enterococcus faecalis (ATCC 29212)
# Enterococcus faecium [3] = assay: Antibacterial activity against vancomycin - resistant Enterococcus faecium (OC 3312 VRE)
# Staphylococcus aureus [4] = assay: Antibacterial activity against methicillin - resistant Staphylococcus aureus (MRSA OC2878)
# Escherichia coli [5] = assay: Antibacterial activity against Escherichia coli (OC 2530) (HS)
# Staphylococcus aureus [6] = assay: Antibacterial activity against methicillin susceptible Staphylococcus aureus (OC 4172) in broth (without serum)
# Staphylococcus aureus [7] = assay: Antibacterial activity towards methicillin - resistant Staphylococcus aureus (MRSA OC2878)
# Enterococcus faecium [8] = assay: Minimum inhibitory concentration against vancomycin - resistant Enterococcus faecium (OC 3312 VRE)
SMILES,MIC (Escherichia coli [1]) [µg/mL],MIC (Staphylococcus aureus [2]) [µg/mL],MIC (Enterococcus faecalis) [µg/mL],MIC (Enterococcus faecium [3]) [µg/mL],MIC (Staphylococcus aureus [4]) [µg/mL],MIC (Escherichia coli [5]) [µg/mL],MIC (Staphylococcus aureus [6]) [µg/mL],MIC (Staphylococcus aureus [7]) [µg/mL],MIC (Enterococcus faecium [8]) [µg/mL]
CC(=O)NC[C@H]1CN(c2ccc(OC3CCN(C(=O)CO)C3)c(F)c2)C(=O)O1 (stereo partly drawn),128,4,16,16,8,128,4,–,–
CC(=O)NC[C@H]1CN(c2ccc(OC3CN(C(=O)COCc4ccccc4)C3)c(F)c2)C(=O)O1,> 128,16,16,16,8,64,8,–,–
CC(=O)NC[C@H]1CN(c2ccc(OC3CN(C(=O)CO)C3)c(F)c2)C(=O)O1,> 128,8,16,16,8,> 128,8,–,–
CC(=O)NC[C@H]1CN(c2ccc(OC3CCN(C(=O)CO)CC3)cc2)C(=O)O1,> 128,32,32,32,16,> 128,16,–,–
CC(=O)NC[C@H]1CN(c2ccc(OC3CCN(C(=O)COCc4ccccc4)CC3)c(F)c2)C(=O)O1,> 128,16,4,4,–,> 32,4,2,–
CC(=O)NC[C@H]1CN(c2ccc(OC3CCCN(C(=O)COCc4ccccc4)C3)c(F)c2)C(=O)O1 (stereo partly drawn),> 128,32,64,64,32,> 64,32,–,–
CC(=O)NC[C@H]1CN(c2ccc(OC3CCN(C(=O)COCc4ccccc4)CC3)cc2)C(=O)O1,128,64,16,–,8,128,16,–,16
CC(=O)NC[C@H]1CN(c2ccc(OC3CCN(C(=O)CO)CC3)c(F)c2)C(=O)O1,> 128,4,8,8,4,128,4,–,–
CC(=O)NC[C@H]1CN(c2ccc(OC3CCN(C(=O)COCc4ccccc4)C3)c(F)c2)C(=O)O1 (stereo partly drawn),> 128,16,16,16,16,> 128,16,–,–
CC(=O)NC[C@H]1CN(c2ccc(OC3CCCN(C(=O)CO)C3)c(F)c2)C(=O)O1 (stereo partly drawn),> 128,8,16,16,8,128,8,–,–
CC(=O)NC[C@H]1CN(c2ccc(N3CCOCC3)c(F)c2)C(=O)O1 [LINEZOLID],32,–,–,2,–,8,–,–,–
